≈ marks a conversion by molar mass, not a printed value.
How the values were obtained:
[1] = molecular target: T1, PBP3 from Escherichia coli (K-12) (Escherichia coli, UniProt P0AD68); experiment: Bocillin-FL fluorescence polarization competition binding, E. coli PBP3
T1 construct: made in house
Procedure, shortened: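 Purified PBPs pre-incubated with inhibitor (E. coli PBP3 1.5 μM, 30 min; P. aeruginosa PBP3 0.75 μM, A. baumannii PBP1a 1 μM and PBP3 0.2 μM, 15 min), then Bocillin-FL 0.1 μM (0.05 μM for PBP1a) added; FP read up to 60 min. EC50 = concentration halving bound Bocillin-FL.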

E. coli AG100 = experiment: microbe, parasite or virus in culture; assay type: cell-based; conditions: Escherichia coli, AG100, read-out: MIC E. coli AG100
E. coli D22 = experiment: microbe, parasite or virus in culture; assay type: cell-based; conditions: Escherichia coli, D22, read-out: MIC E. coli D22
E. coli AG100A = experiment: Broth microdilution MIC in CAMHB; assay type: cell-based; conditions: Escherichia coli, read-out: MIC E. coli AG100A
K. pneumoniae 848844 = experiment: microbe, parasite or virus in culture; assay type: cell-based; conditions: Klebsiella pneumoniae, 848844, read-out: MIC K. pneumoniae 848844
K. pneumoniae SI-117 = experiment: microbe, parasite or virus in culture; assay type: cell-based; conditions: Klebsiella pneumoniae, SI117, read-out: MIC K. pneumoniae SI-117
A. baumannii ATCC 19606 = experiment: microbe, parasite or virus in culture; assay type: cell-based; conditions: Acinetobacter baumannii, ATCC19606, read-out: MIC, A. baumannii ATCC 19606
P. aeruginosa ATCC 35151 = experiment: microbe, parasite or virus in culture; assay type: cell-based; conditions: Pseudomonas aeruginosa, ATCC35151, read-out: MIC P. aeruginosa ATCC 35151
[2] = tested on: P. aeruginosa (ΔmexAB-oprM); experiment: Broth microdilution MIC in CAMHB; assay type: cell-based; conditions: Pseudomonas aeruginosa; read-out: MIC P. aeruginosa ΔmexAB-oprM
[3] = tested on: N. gonorrhoeae ATCC 49226; experiment: Liquid broth MIC in Fastidious broth; conditions: Neisseria gonorrhoeae, ATCC49226, read-out: Minimum Inhibitory Concentration (MIC), N. gonorrhoeae ATCC 49226
N. gonorrhoeae FA1090 = experiment: Liquid broth MIC in Fastidious broth; conditions: Neisseria gonorrhoeae, FA1090, read-out: Minimum Inhibitory Concentration (MIC), N. gonorrhoeae FA 1090
Protocol: Additional antibacterial testing of the series was performed in 8 reference strains of N. gonorrhoeae (ATCC 49226, FA1090, MS 11, WHO G, WHO L, WHO M, WHO K, WHO X, WHO Z, WHO Q, CDC-0197). ATCC 49226, FA1090, MS11, WHO G, WHO L, and WHO M produce wild type or wild-type like PBP2. WHO K, WHO X, WHO Z, WHO Q, and CDC-0197 produce mosaic PBP2. Liquid broth-based assays were used for antibacterial testing of PBP inhibitors in Neisseria gonorrhoeae. Briefly, cryo-preserved bacterial cultures of clinical strains were streaked for isolation on Chocolate Agar (72 g/L (2×) GC Agar Base (BD #228950) and 2% (2×) Hemoglobin was autoclaved at 121° C. for 20 minutes to sterilize. Once cooled to ˜50° C. the 2×GC Agar Base and 2× Hemoglobin solutions are combined and 1% IsoVitaleX Enrichment (BD #211876) was added to the solution). Strains were incubated at 36° C. and 5% CO2 to allow growth of colonies, 24 hours before inoculum preparation. 2-fold serial dilutions of test compounds were conducted in a 96 well plate with a final volume of 75 μL per well at 2-fold the final desired concentration in Fastidious broth (Remel #R07664). For preparation of assay inoculum, a direct suspension was prepared by aseptically swabbing 10-15 colonies from agar plates into culture tubes containing 2 mL of fresh sterile saline. After the dilution plates were set up, direct suspensions were then diluted in a cuvette containing sterile saline and the optical density was measured at 600 nm. Inocula were diluted such that 75 μL of this culture in Fastidious broth results in a starting bacterial concentration of 5×10^5 CFU/mL when added to the dilution plates. The plates were incubated for ˜24 hours at 36° C. and 5% CO2.

N. gonorrhoeae WHO G = experiment: Liquid broth MIC in Fastidious broth; conditions: Neisseria gonorrhoeae, read-out: Minimum Inhibitory Concentration (MIC), N. gonorrhoeae WHO G
N. gonorrhoeae WHO L = experiment: Liquid broth MIC in Fastidious broth; conditions: Neisseria gonorrhoeae, read-out: Minimum Inhibitory Concentration (MIC), N. gonorrhoeae WHO L
N. gonorrhoeae WHO M = experiment: Liquid broth MIC in Fastidious broth; conditions: Neisseria gonorrhoeae, read-out: Minimum Inhibitory Concentration (MIC), N. gonorrhoeae WHO M
N. gonorrhoeae WHO X = experiment: Liquid broth MIC in Fastidious broth; conditions: Neisseria gonorrhoeae, read-out: Minimum Inhibitory Concentration (MIC), N. gonorrhoeae WHO X
N. gonorrhoeae CDC-0197 = experiment: Liquid broth MIC in Fastidious broth; conditions: Neisseria gonorrhoeae, CDC0197, read-out: Minimum Inhibitory Concentration (MIC), N. gonorrhoeae CDC-0197

T1 sequence (P0AD68 1-577): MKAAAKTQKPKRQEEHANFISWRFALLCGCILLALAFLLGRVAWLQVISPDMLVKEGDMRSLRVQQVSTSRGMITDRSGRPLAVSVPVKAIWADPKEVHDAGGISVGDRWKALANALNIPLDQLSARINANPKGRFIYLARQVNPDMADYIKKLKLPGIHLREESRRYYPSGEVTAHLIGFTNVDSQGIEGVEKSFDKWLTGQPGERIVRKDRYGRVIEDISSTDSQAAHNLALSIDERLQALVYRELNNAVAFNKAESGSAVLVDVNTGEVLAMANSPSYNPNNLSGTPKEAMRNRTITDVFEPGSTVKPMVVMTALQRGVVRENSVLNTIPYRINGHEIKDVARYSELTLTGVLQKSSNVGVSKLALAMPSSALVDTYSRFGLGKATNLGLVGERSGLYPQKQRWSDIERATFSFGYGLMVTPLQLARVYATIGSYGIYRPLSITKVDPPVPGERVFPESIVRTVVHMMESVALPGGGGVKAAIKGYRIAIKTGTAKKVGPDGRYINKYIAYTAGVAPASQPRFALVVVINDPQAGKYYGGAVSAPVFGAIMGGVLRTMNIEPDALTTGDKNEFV

SMILES | EC50 [1] [µM] | MIC (E. coli AG100) [µg/mL] | MIC (E. coli D22) [µg/mL] | MIC (E. coli AG100A) [µg/mL] | MIC (K. pneumoniae 848844) [µg/mL] | MIC (K. pneumoniae SI-117) [µg/mL] | MIC (A. baumannii ATCC 19606) [µg/mL] | MIC (P. aeruginosa ATCC 35151) [µg/mL] | MIC [2] [µg/mL] | MIC [3] [µg/mL] | MIC (N. gonorrhoeae FA1090) [µg/mL] | MIC (N. gonorrhoeae WHO G) [µg/mL] | MIC (N. gonorrhoeae WHO L) [µg/mL] | MIC (N. gonorrhoeae WHO M) [µg/mL] | MIC (N. gonorrhoeae WHO X) [µg/mL] | MIC (N. gonorrhoeae CDC-0197) [µg/mL]
CC(=O)N1CCC[C@H]1C(=O)NC(C(=O)N[C@H]1Cc2cccc(C(=O)O)c2OB1O)c1ccc(P(=O)(O)O)cc1 (stereo partly drawn) [Example 65, (3R)-3-(2-((S)-1-acetylpyrrolidine-2-carboxamido)-2-(4-phosphonophenyl)acetamido)-2-hydroxy-3,4-dihydro-2H-benzo[e][1,2]oxaborinine-8-carboxylic acid] | > 250 | > 128 | > 128 | > 128 | > 128 | > 128 | > 128 | 8 to 16 (≈ 14.3 to 28.6 µM) | > 128 | 16 to 32 (≈ 28.6 to 57.2 µM) | 4 to 8 (≈ 7.15 to 14.3 µM) | 16 to 32 (≈ 28.6 to 57.2 µM) | 16 to 32 (≈ 28.6 to 57.2 µM) | 4 to 8 (≈ 7.15 to 14.3 µM) | 16 to 32 (≈ 28.6 to 57.2 µM) | 16 to 32 (≈ 28.6 to 57.2 µM)
CN1CCC[C@H]1C(=O)NC(C(=O)N[C@H]1Cc2cccc(C(=O)O)c2OB1O)c1ccc(P(=O)(O)O)cc1 (stereo partly shown) [Example 66] | 50 to 250 | > 128 | 32 to 64 (≈ 60.2 to 120 µM) | 32 to 64 (≈ 60.2 to 120 µM) | > 128 | > 128 | > 128 | 8 to 16 (≈ 15.1 to 30.1 µM) | 32 to 64 (≈ 60.2 to 120 µM) | 16 to 32 (≈ 30.1 to 60.2 µM) | 4 to 8 (≈ 7.53 to 15.1 µM) | 4 to 8 (≈ 7.53 to 15.1 µM) | 16 to 32 (≈ 30.1 to 60.2 µM) | 4 to 8 (≈ 7.53 to 15.1 µM) | 16 to 32 (≈ 30.1 to 60.2 µM) | 16 to 32 (≈ 30.1 to 60.2 µM)
O=C(O)c1cccc2c1OB(O)[C@@H](NC(=O)C(NC(=O)C(F)(F)F)c1ccc(P(=O)(O)O)cc1)C2 (stereo partly drawn) [Example 172, (3R)-2-hydroxy-3-(2-(4-phosphonophenyl)-2-(2,2,2-trifluoroacetamido)acetamido)-3,4-dihydro-2H-benzo[e][1,2]oxaborinine-8-carboxylic acid] | > 250 | > 128 | > 128 | > 128 | > 128 | > 128 | > 128 | 32 to 64 (≈ 62 to 124 µM) | > 128 | 16 to 32 (≈ 31 to 62 µM) | 4 to 8 (≈ 7.75 to 15.5 µM) | 16 to 32 (≈ 31 to 62 µM) | 16 to 32 (≈ 31 to 62 µM) | 4 to 8 (≈ 7.75 to 15.5 µM) | 16 to 32 (≈ 31 to 62 µM) | 16 to 32 (≈ 31 to 62 µM)
O=C(O)c1cccc2c1OB(O)[C@@H](NC(=O)[C@H](NC(=O)[C@@H]1CCCN1)c1ccc(P(=O)(O)O)cc1)C2 [Example 173, (R)-2-hydroxy-3-((R)-2-(4-phosphonophenyl)-2-((S)-pyrrolidine-2-carboxamido)acetamido)-3,4-dihydro-2H-benzo[e][1,2]oxaborinine-8-carboxylic acid] | 50 to 250 | > 128 | 32 to 64 (≈ 61.9 to 124 µM) | 32 to 64 (≈ 61.9 to 124 µM) | > 128 | 32 to 64 (≈ 61.9 to 124 µM) | > 128 | 8 to 16 (≈ 15.5 to 30.9 µM) | 32 to 64 (≈ 61.9 to 124 µM) | 16 to 32 (≈ 30.9 to 61.9 µM) | 4 to 8 (≈ 7.73 to 15.5 µM) | 4 to 8 (≈ 7.73 to 15.5 µM) | 16 to 32 (≈ 30.9 to 61.9 µM) | 4 to 8 (≈ 7.73 to 15.5 µM) | 16 to 32 (≈ 30.9 to 61.9 µM) | 16 to 32 (≈ 30.9 to 61.9 µM)
O=C(O)c1cccc2c1OB(O)[C@@H](NC(=O)C(NC(=O)c1ccc[nH]c1=O)c1ccc(P(=O)(O)O)cc1)C2 (stereo partly drawn) [Example 174, (3R)-2-hydroxy-3-(2-(2-oxo-1,2-dihydropyridine-3-carboxamido)-2-(4-phosphonophenyl)acetamido)-3,4-dihydro-2H-benzo[e][1,2]oxaborinine-8-carboxylic acid] | 50 to 250 | > 128 | 32 to 64 (≈ 59.1 to 118 µM) | > 128 | > 128 | > 128 | > 128 | 2 to 4 (≈ 3.7 to 7.39 µM) | 32 to 64 (≈ 59.1 to 118 µM) | 4 to 8 (≈ 7.39 to 14.8 µM) | 1 to 2 (≈ 1.85 to 3.7 µM) | 1 to 2 (≈ 1.85 to 3.7 µM) | 16 to 32 (≈ 29.6 to 59.1 µM) | 1 to 2 (≈ 1.85 to 3.7 µM) | 16 to 32 (≈ 29.6 to 59.1 µM) | 16 to 32 (≈ 29.6 to 59.1 µM)
O=C(O)c1cccc2c1OB(O)[C@@H](NC(=O)[C@H](NC(=O)c1c[nH]ccc1=O)c1ccc(P(=O)(O)O)cc1)C2 [Example 175, (R)-2-hydroxy-3-((R)-2-(4-oxo-1,4-dihydropyridine-3-carboxamido)-2-(4-phosphonophenyl)acetamido)-3,4-dihydro-2H-benzo[e][1,2]oxaborinine-8-carboxylic acid] | < 10 | 32 to 64 (≈ 59.1 to 118 µM) | 8 to 16 (≈ 14.8 to 29.6 µM) | 32 to 64 (≈ 59.1 to 118 µM) | 32 to 64 (≈ 59.1 to 118 µM) | 32 to 64 (≈ 59.1 to 118 µM) | > 128 | < 1 | 8 to 16 (≈ 14.8 to 29.6 µM) | 1 to 2 (≈ 1.85 to 3.7 µM) | < 1 | 1 to 2 (≈ 1.85 to 3.7 µM) | 16 to 32 (≈ 29.6 to 59.1 µM) | < 1 | 16 to 32 (≈ 29.6 to 59.1 µM) | 4 to 8 (≈ 7.39 to 14.8 µM)
O=C(O)c1cccc2c1OB(O)[C@@H](NC(=O)C(NC(=O)c1cnc[nH]c1=O)c1ccc(P(=O)(O)O)cc1)C2 (stereo partly drawn) [Example 176, (3R)-2-hydroxy-3-(2-(6-oxo-1,6-dihydropyrimidine-5-carboxamido)-2-(4-phosphonophenyl)acetamido)-3,4-dihydro-2H-benzo[e][1,2]oxaborinine-8-carboxylic acid] | 50 to 250 | > 128 | > 128 | > 128 | > 128 | > 128 | > 128 | 2 to 4 (≈ 3.69 to 7.38 µM) | 32 to 64 (≈ 59 to 118 µM) | 4 to 8 (≈ 7.38 to 14.8 µM) | 1 to 2 (≈ 1.84 to 3.69 µM) | 4 to 8 (≈ 7.38 to 14.8 µM) | 16 to 32 (≈ 29.5 to 59 µM) | 1 to 2 (≈ 1.84 to 3.69 µM) | 16 to 32 (≈ 29.5 to 59 µM) | 16 to 32 (≈ 29.5 to 59 µM)
N#Cc1ccnc(C(=O)NC(C(=O)N[C@H]2Cc3cccc(C(=O)O)c3OB2O)c2ccc(P(=O)(O)O)cc2)c1 (stereo partly drawn) [Example 179, (3R)-3-(2-(4-cyanopicolinamido)-2-(4-phosphonophenyl)acetamido)-2-hydroxy-3,4-dihydro-2H-benzo[e][1,2]oxaborinine-8-carboxylic acid] | 50 to 250 | > 128 | 32 to 64 (≈ 58.2 to 116 µM) | > 128 | > 128 | > 128 | > 128 | 2 to 4 (≈ 3.63 to 7.27 µM) | > 128 | 16 to 32 (≈ 29.1 to 58.2 µM) | 1 to 2 (≈ 1.82 to 3.63 µM) | 16 to 32 (≈ 29.1 to 58.2 µM) | 16 to 32 (≈ 29.1 to 58.2 µM) | 4 to 8 (≈ 7.27 to 14.5 µM) | 16 to 32 (≈ 29.1 to 58.2 µM) | 16 to 32 (≈ 29.1 to 58.2 µM)
N#Cc1cccc(C(=O)N[C@@H](C(=O)N[C@H]2Cc3cccc(C(=O)O)c3OB2O)c2ccc(P(=O)(O)O)cc2)n1 [Example 180, (R)-3-((R)-2-(6-cyanopicolinamido)-2-(4-phosphonophenyl)acetamido)-2-hydroxy-3,4-dihydro-2H-benzo[e][1,2]oxaborinine-8-carboxylic acid] | < 10 | > 128 | 2 to 4 (≈ 3.63 to 7.27 µM) | 8 to 16 (≈ 14.5 to 29.1 µM) | > 128 | > 128 | > 128 | 2 to 4 (≈ 3.63 to 7.27 µM) | 32 to 64 (≈ 58.2 to 116 µM) | < 1 | < 1 | < 1 | 4 to 8 (≈ 7.27 to 14.5 µM) | < 1 | 4 to 8 (≈ 7.27 to 14.5 µM) | < 1
O=C(O)c1cccc2c1OB(O)[C@@H](NC(=O)C(NC(=O)c1ncccc1Cl)c1ccc(P(=O)(O)O)cc1)C2 (stereo partly drawn) [Example 183, (3R)-3-(2-(3-chloropicolinamido)-2-(4-phosphonophenyl)acetamido)-2-hydroxy-3,4-dihydro-2H-benzo[e][1,2]oxaborinine-8-carboxylic acid] | 50 to 250 | > 128 | 32 to 64 (≈ 57.2 to 114 µM) | > 128 | > 128 | > 128 | > 128 | 8 to 16 (≈ 14.3 to 28.6 µM) | > 128 | 4 to 8 (≈ 7.15 to 14.3 µM) | 1 to 2 (≈ 1.79 to 3.57 µM) | 4 to 8 (≈ 7.15 to 14.3 µM) | 16 to 32 (≈ 28.6 to 57.2 µM) | 1 to 2 (≈ 1.79 to 3.57 µM) | 16 to 32 (≈ 28.6 to 57.2 µM) | 16 to 32 (≈ 28.6 to 57.2 µM)

Reference: patent US20240270762A1, “PENICILLIN-BINDING PROTEIN INHIBITORS” (priority 2021, published 2024)
